Measured values published in US9981934B2, “Enzyme-specific fluorescent compound capable of being retained in cells” (The University of Tokyo, priority 2014, dated 2018).

Tests used:
β-galactosidase [1] = target: T1, β-galactosidase (Escherichia coli, UniProt P00722); assay type: biochemical; conditions: 2.5 μM compound, 0.5 mg/mL BSA; for fluorescence at the band of BSA after SDS-PAGE: 5 U β-galactosidase, excitation 488 nm
Protocol: (1) 2.5 μM 4-CH2F-HMDER-βGal and 0.5 mg/mL BSA, (2) 2.5 μM 4-CH2F-HMDER-βGal, 0.5 mg/mL BSA, and 5 U of β-galactosidase, (3) 2.5 μM 4-CHF2-HMDER-βGal, 0.5 mg/mL BSA, and 5 U of β-galactosidase, (4) 2.5 μM 2-CHF2-HMDER-βGal, 0.5 mg/mL BSA, and 5 U of β-galactosidase, and (5) 2.5 μM HMDER-βGal, 0.5 mg/mL BSA, and 5 U of β-galactosidase were each reacted in aqueous solution (500 mM sodium phosphate buffer solution having a pH of 7.4), after which the reaction products were subjected to SDS-PAGE (running gel: 10%, stacking gel: 4%, electrophoresis voltage: 200 V). […] After observation, each gel was Coomassie stained and the position of the BSA on the gel was confirmed (FIG. 4(b)).

[2] = test system: Wing primordia (wing discs) of a (en-lacZ) fruit fly expressing β-galactosidase; test: Fluorescence imaging of non-fixed biological tissue having β-galactosidase activity; conditions: 20 μM, 30 minutes, room temperature
Text: The observation conditions were as follows: Ar: 40% to 25%, excitation light: 314 nm, emission wavelength: 535 to 595 nm (HyD2), 20× magnification.

HEK-lacZ cells [3] = test: Detection of β-galactosidase activity in living cells using flow cytometry; assay type: cell-based; conditions: mixture of HEK-LacZ and HEK cells, 1 μM, 30 minutes, excitation 488 nm
Protocol: These cells were analyzed by excitation light having a wavelength of 488 nm using an Accuri C6 (Accuri Cytometers, Inc.) flow cytometer.

HEK-lacZ cells [4] = test: Fluorescence imaging of living cells expressing β-galactosidase (confocal microscope); conditions: for fluorescence imaging of β-galactosidase activity of individual cells: mixture of HEK-LacZ cells and HEK cells, without washing
Protocol: HEK cells, HEK-lacZ cells, and a mixture thereof were incubated (at 37° C. in the presence of 5% CO2) for 30 minutes together with 1 μM 4-CH2F-HMDER-βGal or HMDER-βGal, after which a fluorescence image and a differential interference image (DIC) of the cells were acquired using a confocal microscope, before and after washing twice with culture medium. […] A TCS SP5 X (manufactured by Leica) equipped with white light laser and an HCX PL APO CS 40×/1.25 objective lens (manufactured by Leica) was used as the confocal microscope, which was controlled by LAS AF software. The observation conditions were as follows: white light laser (WLL): 80% to 25%, excitation wavelength: 525 nm, observation wavelength: 535 to 595 nm, gain: 800 V (PMT1)/350 V (Scan-DIC), offset: 0%, pinhole: 67.88 μM (Airy disk).

HEK-lacZ cell lysate = target: T2, HEK-lacZ cell lysate (Escherichia coli, UniProt P00722); assay type: biochemical; conditions: 2.5 μM compound; for fluorescence labeling of intracellular protein after SDS-PAGE: 1.5 mg/mL HEK-lacZ cell lysate, 30 minutes 37° C.
T2 construct: expressed in transfected cells; host or cells: HEK cells (HEK-lacZ), used as cell lysate
Text: HEK cells (HEK-lacZ cells) expressing β-galactosidase and HEK cells were used.

[5] = test system: ovarian cancer cells SHIN3; conditions: intraperitoneal administration, observed 1 hour later, SHIN3 cancer model mouse
Protocol: A cancer model mouse inoculated with ovarian cancer cells SHIN3 was produced. Acidic β-galactosidase activity is known to be elevated in ovarian cancer cells. 4-CH2F-HMDER-βGal was intraperitoneally administered to the cancer model mouse, and fluorescence was observed 1 hour later using a Maestro in-vivo imaging system (CRi). The observation conditions were as follows: excitation light: 490 to 530 nm, observation wavelength: 550 to 800 nm.

β-galactosidase [6] = target: T1, β-galactosidase; assay type: biochemical; conditions: 30 minutes, 250 mM sodium phosphate buffer pH 7.4, excitation 550 nm
Protocol: Absorption spectrum variation and fluorescence spectrum variation (excitation wavelength: 550 nm) caused by enzyme reaction of β-galactosidase and the enzyme-specific retainable fluorescent compound of the present invention 2-CHF2-HMDER-βGal, 4-CHF2-HMDER-βGal, or 4-CH2F-HMDER-βGal for 30 minutes was measured in the presence of a 250 mM sodium phosphate buffer solution (pH: 7.4). Measurement was performed using a Shimadzu UV-2450 (manufactured by Shimadzu Corporation) and a Hitachi F-7000 (manufactured by Hitachi, Ltd.).

[7] = test system: fruit fly (esg-lacZ) expressing β-galactosidase in the midgut; conditions: midgut fixed with 4% PFA, reacted 10 minutes
Protocol: A fruit fly (esg-lacZ) expressing β-galactosidase in the midgut thereof was dissected and fixed with 4% FPA. Then, 4-CH2F-HMDER-βGal was added and reacted for 10 minutes.

[8] = test system: wing primordia (wing discs) with arm-lacZ / His2Av-mRFP1 cells; conditions: 10 μM, 30 minutes, non-fixed wing primordia
Protocol: A male His2Av-mRFP1, FRT80B/TM6B fruit fly (Drosophila melanogaster) and a female hs-flp; arm-lacZ FRT80B fruit fly were crossed, a heat shock at a temperature of 37° C. for 1 hour was applied to the offspring at the first-instar larval stage 30 hours after hatching thereof, and cells having the following three genotypes were expressed in the wing primordia (wing discs): (1) cells expressing only β-galactosidase (arm-lacZ), (2) cells expressing only red fluorescent protein (mRFP1) (His2Av-mRFP1), and (3) cells expressing both β-galactosidase and mRFP1 (arm-lacZ/His2Av-mRFP1). […] The observation conditions were as follows: (4-CH2F-HMDER-βGal) excitation light: 514 nm, observation wavelength: 525 to 585 nm, (mRFP1) excitation light: 594 nm, emission wavelength: 610 to 700 nm, 63× magnification.

[9] = test system: fruit fly fat body overexpressing β-galactosidase; conditions: 10 μM, fat bodies of third-instar fly
Protocol: In order to analyze cells in fruit fly (Drosophila melanogaster) fat body, overexpression of β-galactosidase was induced by crossing UAS-lacZ with hs-flp^122; Actin>y>Gal4 using a flip-out technique. To perform living-cell fluorescence imaging, fat bodies were dissected from a third-instar (final instar) fly and incubated for 29 minutes in a culture medium including 10 μM 4-CH2F-HMDER-βGal and 16 μM Hoechst 33342 (cell nuclear stain), and the fat bodies were washed with PBS and immersed in 80% glycerol. To perform immunostaining, the dissected adipocytes were immersed for 20 minutes in PBS containing 4% paraformaldehyde (PFA) and fixed. […] The observation conditions were as follows: (Hoeschst 33342) excitation light: 405 nm, observation wavelength: 415 to 490 nm, (4-C2F-HMDER-βGal) excitation light: 514 nm, observation wavelength: 525 to 600 nm, (Alexa 647 modified secondary antibodies) excitation light: 633 nm, observation wavelength: 640 to 700 nm, 40× magnification.

T2 sequence (P00722 whole entry): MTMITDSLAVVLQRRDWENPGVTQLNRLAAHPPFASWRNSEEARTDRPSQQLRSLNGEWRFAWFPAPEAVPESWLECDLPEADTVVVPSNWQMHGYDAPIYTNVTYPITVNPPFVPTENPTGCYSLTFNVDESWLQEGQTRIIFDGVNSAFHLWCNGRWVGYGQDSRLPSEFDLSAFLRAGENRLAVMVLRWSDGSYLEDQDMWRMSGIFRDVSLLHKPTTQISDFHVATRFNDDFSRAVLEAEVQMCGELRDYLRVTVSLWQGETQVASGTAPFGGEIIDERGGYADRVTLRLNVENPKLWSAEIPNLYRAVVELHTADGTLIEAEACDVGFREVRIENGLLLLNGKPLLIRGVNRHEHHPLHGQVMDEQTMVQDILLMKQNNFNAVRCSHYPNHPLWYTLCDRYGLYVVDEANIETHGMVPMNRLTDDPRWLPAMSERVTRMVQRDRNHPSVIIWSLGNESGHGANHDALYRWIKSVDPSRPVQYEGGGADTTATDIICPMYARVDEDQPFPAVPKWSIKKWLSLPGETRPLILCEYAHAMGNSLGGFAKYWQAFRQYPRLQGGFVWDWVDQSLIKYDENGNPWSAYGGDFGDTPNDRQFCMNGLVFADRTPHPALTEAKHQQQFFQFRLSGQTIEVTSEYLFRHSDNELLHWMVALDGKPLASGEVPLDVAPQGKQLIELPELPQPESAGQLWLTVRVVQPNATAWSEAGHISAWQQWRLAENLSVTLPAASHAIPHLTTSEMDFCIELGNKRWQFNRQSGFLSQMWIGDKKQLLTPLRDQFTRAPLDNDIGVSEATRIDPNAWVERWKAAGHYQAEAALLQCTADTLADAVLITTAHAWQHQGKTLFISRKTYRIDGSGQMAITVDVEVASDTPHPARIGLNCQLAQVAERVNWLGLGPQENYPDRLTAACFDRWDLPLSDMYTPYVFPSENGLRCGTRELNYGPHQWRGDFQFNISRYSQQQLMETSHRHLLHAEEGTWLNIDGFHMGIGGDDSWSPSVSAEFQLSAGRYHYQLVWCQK
T1 sequence (P00722 2-1024): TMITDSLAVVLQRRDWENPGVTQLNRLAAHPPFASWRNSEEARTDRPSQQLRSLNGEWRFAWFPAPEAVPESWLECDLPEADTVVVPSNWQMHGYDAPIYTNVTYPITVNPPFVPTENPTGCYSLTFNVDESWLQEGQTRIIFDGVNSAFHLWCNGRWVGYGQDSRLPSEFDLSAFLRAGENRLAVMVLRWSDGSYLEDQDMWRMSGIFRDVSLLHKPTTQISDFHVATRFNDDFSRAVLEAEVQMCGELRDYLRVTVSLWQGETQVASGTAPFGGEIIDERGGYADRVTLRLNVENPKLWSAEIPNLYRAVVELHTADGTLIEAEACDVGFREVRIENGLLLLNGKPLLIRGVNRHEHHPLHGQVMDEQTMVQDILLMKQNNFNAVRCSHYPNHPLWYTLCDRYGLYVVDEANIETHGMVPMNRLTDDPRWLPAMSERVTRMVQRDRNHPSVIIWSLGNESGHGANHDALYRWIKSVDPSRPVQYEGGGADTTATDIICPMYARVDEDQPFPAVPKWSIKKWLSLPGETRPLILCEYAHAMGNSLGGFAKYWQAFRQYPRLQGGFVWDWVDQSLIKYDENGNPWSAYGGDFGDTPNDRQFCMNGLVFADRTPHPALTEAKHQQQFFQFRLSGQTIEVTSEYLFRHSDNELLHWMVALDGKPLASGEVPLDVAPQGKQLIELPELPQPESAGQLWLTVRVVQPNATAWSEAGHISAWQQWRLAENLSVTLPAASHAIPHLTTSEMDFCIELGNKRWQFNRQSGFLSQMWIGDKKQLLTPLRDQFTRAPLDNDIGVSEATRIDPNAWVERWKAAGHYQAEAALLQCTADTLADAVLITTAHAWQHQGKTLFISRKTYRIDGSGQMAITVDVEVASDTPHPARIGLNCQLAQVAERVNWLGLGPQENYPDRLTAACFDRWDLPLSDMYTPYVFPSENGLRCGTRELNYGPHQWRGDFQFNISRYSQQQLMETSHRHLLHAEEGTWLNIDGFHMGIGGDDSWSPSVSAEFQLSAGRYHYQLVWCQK

SMILES | fluorescence at the band of BSA after SDS-PAGE (β-galactosidase [1]) | selective fluorescence imaging of the region having β-galactosidase activity [2] | differentiation of HEK-LacZ cells and HEK cells by flow cytometry (HEK-lacZ cells [3]) | fluorescence imaging of β-galactosidase activity of individual cells (HEK-lacZ cells [4]; 1 μM, 30 minutes) | fluorescence labeling of intracellular protein after SDS-PAGE (HEK-lacZ cell lysate) | fluorescence at the band of BSA after SDS-PAGE, sample not including β-galactosidase (β-galactosidase [1]; no β-galactosidase (lane 1)) | cancer-site-selective fluorescence imaging [5] | fluorescence emission as a result of enzyme reaction with β-galactosidase (β-galactosidase [6]) | single-cell fluorescence imaging in fixed tissue [7] | fluorescence of HEK-LacZ cells (HEK-lacZ cells [4]; 1 μM, 30 minutes, observed without washing) | change in fluorescence intensity after washing (retention in cells) (HEK-lacZ cells [4]; 1 μM, 30 minutes, washed twice with culture medium) | fluorescence imaging of fixed samples (HEK-lacZ cells [4]; cells fixed with 4% PFA for 10 minutes after incubation) | fluorescence labeling of intracellular protein after SDS-PAGE, HEK cells not expressing β-galactosidase (HEK-lacZ cell lysate; 1.5 mg/mL HEK cell lysate (lane 1)) | visualization of mosaic pattern of β-galactosidase-positive cells [8] | fluorescence imaging of β-galactosidase-expressing cells in fat body [9]
CCN(CC)c1ccc2c(c1)Oc1cc(OC3OC(CO)C(O)C(O)C3O)ccc1C21OCc2ccccc21 (centres unmarked) [HMDER-βGal, reference compound] | Fluorescence was not observed | the region of interest having β-galactosidase activity could not be discerned | the cells could not be differentiated | fluorescence imaging of β-galactosidase activity of individual eels was not possible | Fluorescence was not confirmed |  |  |  |  |  |  |  |  |  | 
CCN(CC)c1ccc2c(c1)Oc1c(ccc(O[C@@H]3O[C@H](CO)[C@H](O)[C@H](O)[C@H]3O)c1CF)C21OCc2ccccc21 (some centres unmarked) [4-CH2F-HMDER-βGal] | Fluorescence was observed at the band of BSA | selective fluorescence imaging of the region of interest (posterior section) having β-galactosidase activity was possible | possible to clearly differentiate between these cell types | a definite difference in fluorescence level among individual cells was observed | Fluorescence labeling to the intracellular protein was confirmed | Fluorescence was not observed | can be applied in cancer-site-selective fluorescence imaging | emitted fluorescence | it was possible to confirm a cell emitting fluorescence in a tissue | exhibited clear fluorescence | almost no change in fluorescence intensity | Fluorescence imaging with the fixed samples was also possible | Fluorescence was not confirmed | the mosaic pattern of the cells having the three genotypes described above was clearly visualized | it is possible to perform fluorescent imaging of cells of interest in which β-galactosidase is expressed
CCN(CC)c1ccc2c(c1)Oc1cc(O[C@@H]3O[C@H](CO)[C@H](O)[C@H](O)[C@H]3O)c(C(F)F)cc1C21OCc2ccccc21 (stereo partly drawn) [2-CHF2-HMDER-βGal, (2S,3R,4S,5R,6R)-2-((6′-(diethylamino)-2′-(difluoromethyl)-3H-spiro[isobenzofuran-1,9′-xanthen]-3′-yl)oxy)-6-(hydroxymethyl)tetrahydro-2H-pyran-3,4,5-triol] | Fluorescence was observed at the band of BSA |  |  |  | Fluorescence labeling to the intracellular protein was confirmed |  |  | emitted fluorescence |  |  |  |  |  |  | 
CCN(CC)c1ccc2c(c1)Oc1c(ccc(O[C@@H]3O[C@H](CO)[C@H](O)[C@H](O)[C@H]3O)c1C(F)F)C21OCc2ccccc21 (stereo partly drawn) [4-CHF2-HMDER-βGal, (2S,3R,4S,5R,6R)-2-((3′-(diethyiamino)-5′-(difluoromethyl)-3H-spiro[isobenzofuran-1,9′-xanthen]-6′-yl)-oxy)-6-(hydroxymethyl)tetrahydro-2H-pyran-3,4,5-triol] | Fluorescence was observed at the band of BSA |  |  |  | Fluorescence labeling to the intracellular protein was confirmed |  |  | emitted fluorescence |  |  |  |  |  |  | 
